# Data reported in ChEMBL document CHEMBL1201862, “PubChem BioAssay data set” (2004).
#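 Grown in 96-well plates, cells were treated for 48 hours with each compound at five concentrations. Insufficient inhibition: endpoint recorded as highest concentration tested. Abbreviation: GI50, concentration required for 50% inhibition of growth.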 Calls of active or inactive are those of the source. Cut-off read from the data, not from the text of the source: active = GI50 up to about 1.1 µM and inactive = higher.
# Experiments:
# Assay in all cases: NCI-60 cell line screen, 48 h
# UACC-62 = system: UACC-62
# SF-539 = system: SF-539
# SW-620 = system: SW-620
# KM12 = system: KM12
# SNB-19 = system: SNB-19
# Hs-578T = system: Hs-578T
# IGROV-1 = system: IGROV-1
# NCI-H460 = system: NCI-H460
# HOP-62 = system: HOP-62
# HCT-116 = system: HCT-116
# K562 = system: K562
# TK-10 = system: TK-10
# RPMI-8226 = system: RPMI-8226
# CCRF-CEM = system: CCRF-CEM
# MDA-MB-435 = system: MDA-MB-435
# DU-145 = system: DU-145
# OVCAR-4 = system: OVCAR-4
# UO-31 = system: UO-31
# SR = system: SR
# CAKI-1 = system: CAKI-1
# PC-3 = system: PC-3
# NCI-H226 = system: NCI-H226
# OVCAR-8 = system: OVCAR-8
# NCI-H522 = system: NCI-H522
# OVCAR-5 = system: OVCAR-5
# SK-MEL-5 = system: SK-MEL-5
# A549 = system: A549
# HT-29 = system: HT-29
# HCT-15 = system: HCT-15
# Malme-3M = system: Malme-3M
# SN12C = system: SN12C
# HCC 2998 = system: HCC 2998
# SK-MEL-28 = system: SK-MEL-28
# MOLT-4 = system: MOLT-4
# EKVX = system: EKVX
# UACC-257 = system: UACC-257
# SF-268 = system: SF-268
# T47D = system: T47D
# HOP-92 = system: HOP-92
# A498 = system: A498
# 786-0 = system: 786-0
# SK-MEL-2 = system: SK-MEL-2
# MDA-MB-231 = system: MDA-MB-231
# NCI-H23 = system: NCI-H23
# SK-OV-3 = system: SK-OV-3
# COLO 205 = system: COLO 205
# MDA-N = system: MDA-N
# NCI/ADR-RES = system: NCI/ADR-RES
# U-251 = system: U-251
# RXF 393 = system: RXF 393
# SF-295 = system: SF-295
# HL-60 = system: HL-60
# M14 = system: M14
# SNB-75 = system: SNB-75
# MCF7 = system: MCF7
# ACHN = system: ACHN
# LOX IMVI = system: LOX IMVI
# OVCAR-3 = system: OVCAR-3
# BT-549 = system: BT-549
smiles,measurement,setting,value
COc1cc2c(NCCN(C)C)nc3c4cc5c(cc4ccc3c2cc1OC)OCO5,GI50,UACC-62,4.49 µM (inactive)
same,GI50,SF-539,4.06 µM (inactive)
same,GI50,SW-620,3.36 µM (inactive)
same,GI50,KM12,4.18 µM (inactive)
same,GI50,SNB-19,3.56 µM (inactive)
same,GI50,Hs-578T,5.21 µM (inactive)
same,GI50,IGROV-1,2.8 µM (inactive)
same,GI50,NCI-H460,0.193 µM (active)
same,GI50,HOP-62,3.54 µM (inactive)
same,GI50,HCT-116,3.3 µM (inactive)
same,GI50,K562,3.23 µM (inactive)
same,GI50,TK-10,2.72 µM (inactive)
same,GI50,RPMI-8226,2.56 µM (inactive)
same,GI50,CCRF-CEM,1.32 µM (inactive)
same,GI50,MDA-MB-435,3.5 µM (inactive)
same,GI50,DU-145,3.96 µM (inactive)
same,GI50,OVCAR-4,3.96 µM (inactive)
same,GI50,UO-31,3.36 µM (inactive)
same,GI50,SR,115 nM (active)
same,GI50,CAKI-1,2.73 µM (inactive)
same,GI50,PC-3,5.04 µM (inactive)
same,GI50,NCI-H226,3.7 µM (inactive)
same,GI50,OVCAR-8,3.13 µM (inactive)
same,GI50,NCI-H522,3.9 µM (inactive)
same,GI50,OVCAR-5,3.42 µM (inactive)
same,GI50,SK-MEL-5,2.84 µM (inactive)
same,GI50,A549,2.75 µM (inactive)
same,GI50,HT-29,3.37 µM (inactive)
same,GI50,HCT-15,2940 nM
same,GI50,Malme-3M,4.14 µM (inactive)
same,GI50,SN12C,4.53 µM (inactive)
same,GI50,HCC 2998,4.59 µM (inactive)
same,GI50,SK-MEL-28,4.93 µM (inactive)
same,GI50,MOLT-4,242 nM (active)
same,GI50,EKVX,4.09 µM (inactive)
same,GI50,UACC-257,4.1 µM (inactive)
same,GI50,SF-268,4.78 µM (inactive)
same,GI50,T47D,6.15 µM (inactive)
same,GI50,HOP-92,4.82 µM (inactive)
same,GI50,A498,2.76 µM (inactive)
same,GI50,786-0,2.95 µM (inactive)
same,GI50,SK-MEL-2,6.04 µM (inactive)
same,GI50,MDA-MB-231,5.13 µM (inactive)
same,GI50,NCI-H23,3.08 µM (inactive)
same,GI50,SK-OV-3,4.78 µM (inactive)
same,GI50,COLO 205,2.81 µM (inactive)
same,GI50,MDA-N,3.57 µM (inactive)
same,GI50,NCI/ADR-RES,4.16 µM (inactive)
same,GI50,U-251,4.16 µM (inactive)
same,GI50,RXF 393,3.16 µM (inactive)
same,GI50,SF-295,2.58 µM (inactive)
same,GI50,HL-60,4.23 µM (inactive)
same,GI50,M14,4.03 µM (inactive)
same,GI50,SNB-75,2.18 µM (inactive)
same,GI50,MCF7,1.84 µM (inactive)
same,GI50,ACHN,0.745 µM (active)
c1ccc(-c2nnn3c2NC2=C(CCCC2)C3c2ccccc2)cc1 (configuration not stated),GI50,UACC-62,16.4 µM (inactive)
same,GI50,SF-539,19.1 µM (inactive)
same,GI50,SW-620,12.5 µM (inactive)
same,GI50,KM12,15.5 µM (inactive)
same,GI50,SNB-19,33.8 µM (inactive)
same,GI50,Hs-578T,24.9 µM (inactive)
same,GI50,IGROV-1,17.5 µM (inactive)
same,GI50,NCI-H460,23.4 µM (inactive)
same,GI50,HOP-62,16.4 µM (inactive)
same,GI50,HCT-116,12 µM (inactive)
same,GI50,K562,10.3 µM (inactive)
same,GI50,RPMI-8226,14.9 µM (inactive)
same,GI50,CCRF-CEM,12.3 µM (inactive)
same,GI50,MDA-MB-435,5.71 µM (inactive)
same,GI50,DU-145,17.7 µM (inactive)
same,GI50,UO-31,17.1 µM (inactive)
same,GI50,SR,13500 nM (inactive)
same,GI50,CAKI-1,18.2 µM (inactive)
same,GI50,PC-3,16.9 µM (inactive)
same,GI50,NCI-H226,27.4 µM (inactive)
same,GI50,OVCAR-8,2.06 µM (inactive)
same,GI50,NCI-H522,5.68 µM (inactive)
same,GI50,OVCAR-5,16 µM (inactive)
same,GI50,SK-MEL-5,14.2 µM (inactive)
same,GI50,A549,12.9 µM (inactive)
same,GI50,HT-29,15.1 µM (inactive)
same,GI50,LOX IMVI,13.7 µM (inactive)
same,GI50,HCT-15,1540 nM
same,GI50,SN12C,21.1 µM (inactive)
same,GI50,MOLT-4,425 nM (active)
same,GI50,UACC-257,21.2 µM (inactive)
same,GI50,OVCAR-3,18.4 µM (inactive)
same,GI50,SF-268,21.3 µM (inactive)
same,GI50,T47D,22.5 µM (inactive)
same,GI50,786-0,16.7 µM (inactive)
same,GI50,SK-MEL-2,16.2 µM (inactive)
same,GI50,MDA-MB-231,24.6 µM (inactive)
same,GI50,NCI-H23,25.8 µM (inactive)
same,GI50,SK-OV-3,22.1 µM (inactive)
same,GI50,COLO 205,16.5 µM (inactive)
same,GI50,MDA-N,12.9 µM (inactive)
same,GI50,NCI/ADR-RES,21.7 µM (inactive)
same,GI50,U-251,12.5 µM (inactive)
same,GI50,RXF 393,17.1 µM (inactive)
same,GI50,SF-295,20.7 µM (inactive)
same,GI50,HL-60,18.5 µM (inactive)
same,GI50,M14,18.8 µM (inactive)
same,GI50,MCF7,17.1 µM (inactive)
same,GI50,ACHN,1.47 µM (inactive)
COc1cc(C2c3[nH]c4ccc(F)cc4c3C[C@H]3COC(=O)N23)cc(OC)c1O (some centres not stated),GI50,UACC-62,12.1 µM (inactive)
same,GI50,SF-539,2.93 µM (inactive)
same,GI50,SW-620,9.46 µM (inactive)
same,GI50,KM12,12.3 µM (inactive)
same,GI50,SNB-19,21.3 µM (inactive)
same,GI50,Hs-578T,2.85 µM (inactive)
same,GI50,IGROV-1,13.2 µM (inactive)
same,GI50,NCI-H460,4.36 µM (inactive)
same,GI50,HOP-62,5.71 µM (inactive)
same,GI50,HCT-116,5.78 µM (inactive)
same,GI50,K562,14.8 µM (inactive)
same,GI50,TK-10,> 10 µM (inactive)
same,GI50,RPMI-8226,96.6 µM (inactive)
same,GI50,CCRF-CEM,6.89 µM (inactive)
same,GI50,DU-145,15.9 µM (inactive)
same,GI50,OVCAR-4,16.2 µM (inactive)
same,GI50,UO-31,12.6 µM (inactive)
same,GI50,SR,470 nM (active)
same,GI50,CAKI-1,11 µM (inactive)
same,GI50,PC-3,9.16 µM (inactive)
same,GI50,NCI-H226,10.4 µM (inactive)
same,GI50,OVCAR-8,10.1 µM (inactive)
same,GI50,NCI-H522,15 µM (inactive)
same,GI50,OVCAR-5,18.8 µM (inactive)
same,GI50,SK-MEL-5,10.7 µM (inactive)
same,GI50,A549,6.65 µM (inactive)
same,GI50,HT-29,7.55 µM (inactive)
same,GI50,LOX IMVI,5.43 µM (inactive)
same,GI50,HCT-15,8690 nM
same,GI50,Malme-3M,14.7 µM (inactive)
same,GI50,SN12C,13.5 µM (inactive)
same,GI50,HCC 2998,14.1 µM (inactive)
same,GI50,SK-MEL-28,7.96 µM (inactive)
same,GI50,MOLT-4,3730 nM (inactive)
same,GI50,EKVX,24 µM (inactive)
same,GI50,UACC-257,11.1 µM (inactive)
same,GI50,BT-549,43.2 µM (inactive)
same,GI50,OVCAR-3,13.4 µM (inactive)
same,GI50,SF-268,11.5 µM (inactive)
same,GI50,T47D,32.5 µM (inactive)
same,GI50,HOP-92,15.8 µM (inactive)
same,GI50,A498,6.71 µM (inactive)
same,GI50,786-0,11.6 µM (inactive)
same,GI50,SK-MEL-2,26.2 µM (inactive)
same,GI50,MDA-MB-231,22.1 µM (inactive)
same,GI50,NCI-H23,4.11 µM (inactive)
same,GI50,SK-OV-3,15.5 µM (inactive)
same,GI50,COLO 205,4.18 µM (inactive)
same,GI50,NCI/ADR-RES,4.93 µM (inactive)
same,GI50,U-251,6.47 µM (inactive)
same,GI50,RXF 393,3.29 µM (inactive)
same,GI50,SF-295,12.1 µM (inactive)
same,GI50,HL-60,7.71 µM (inactive)
same,GI50,M14,17 µM (inactive)
same,GI50,SNB-75,2.29 µM (inactive)
same,GI50,MCF7,3.33 µM (inactive)
same,GI50,ACHN,5.79 µM (inactive)
